Measured values taken from US7588752B2, “Antimicrobial peptides” (The University of Melbourne, priority 1997, dated 2009).
No end group written: not given here.

Columns and labels:
Klebsiella pneumoniae = conditions: concentrations as low as 0.1 μM; injected intravenously before lethal infectious challenge; cited from earlier work
[1] = tested on: Streptococcus sanguinis (formerly S. sanguis); experiment: Antibacterial growth assay in liquid medium, 96 well plates, OD 650 nm; type: cell-based; conditions: peaks of tryptic hydrolysate of sodium caseinate
Method: Hydrolysis was terminated by the addition of 1M HCl to pH 4.6. The hydrolysate was centrifuged (11,600 g for 10 min) and then filtered through a 0.2 μm PVDF filter before being applied to a 7 μm C8 (Brownlee) reversed-phase column (4.6×220 mm). The sample was eluted using an Applied Biosystems 140 A Solvent Delivery System to generate a stepwise linear gradient from 0-20% B in 2 min followed by 20-45% B in 40 min at a flow rate of 1 ml/min. Eluant A was 0.1% (v/v) TFA in water and eluant B was 80% (v/v) acetronitrile, 0.1% (v/v) TFA in water. The eluant was monitored using an Applied Biosystems 1000S Diode Array detector at a primary wavelength of 215 nm. Peaks were collected and assayed for antimicrobial activity. […] Growth was determined over a 30 hour period after inoculation by measuring the optical density of the cell suspensions at a wavelength of 650 nm (OD650), using a microplate reader (Biorad, model 450). Growth was determined by subtracting the initial reading, taken immediately after inoculation from the final reading (maximum culture OD). […]
The antibacterial assay was conducted in sterile 96 well plates (Becton Dickinson, Melbourne, Australia). […] Growth of the bacterium was determined as the difference between the final and initial Optical Density (OD) 650 nm readings using a microplate reader (BIORAD, model 450, NSW, Australia). […]

[2] = tested on: Streptococcus mutans Ingbritt; type: cell-based; conditions: RP-HPLC of endo Glu-C digest of TCA-soluble UF whey
Method: Peaks were collected and assayed for antimicrobial activity. Antimicrobial assays were carried out in liquid growth medium using sterile 96 well plates, each well having a capacity of 300 μL. The growth medium consisted of Todd Hewit broth (36.4 g/L), Yeast Extract (5.0 g/L) with 100 mmol/L potassium phosphate buffer. Routinely the pH of the growth medium was adjusted to 6.3. An inoculum of approximately 1.5×10^2 cells (Streptococcus sanguis, Streptococcus mutans, Porphyromonas gingivalis) that had been harvested during the exponential phase of growth, was added to each well. The ionophore gramicidin (40 μmol/L final concentration) was added to a series of wells as a negative control. Positive controls contained only the inoculum and the growth medium. Growth was determined over a 30 hour period after inoculation by measuring the optical density of the cell suspensions at a wavelength of 650 nm (OD650), using a microplate reader (Biorad, model 450). Growth was determined by subtracting the initial reading, taken immediately after inoculation from the final reading (maximum culture OD). […]

Escherichia coli = conditions: cited from earlier work
Staphylococuus carnosus = conditions: cited from earlier work

Substance	protective effect in mice against Klebsiella pneumoniae infection (Klebsiella pneumoniae)	antimicrobial activity against Streptococcus sanguinis [1]	further results
PGPIPN (bovine) [β-casein (63-68), casein peptide of Migliore-Samour et al. (1989)]	significant protective effect	–	–
DMPIQAFLLYQQPVLGPVR (bovine) [β-casein (184-202)]	–	showed activity	–
Ser(P)^149 κ-casein (117-169): tryptic casein peptide, genetic variant not specified ((SEQ ID NO:12) and (SEQ ID NO:14))	–	showed activity	–
TTMPLW (bovine) [αs1-casein (194-199), casein peptide of Migliore-Samour et al. (1989)]	significant protective effect	–	–
AVESTVATLEDSPEVIESPPE [Ser(P)^149 κ-casein A (138-158)]	–	–	antimicrobial activity against S. mutans [2]: exhibited antimicrobial activity
αs2-casein (fl72-203): antibacterial peptide from bovine αs2-casein released by treating milk with glacial acetic acid (Zucht et al., 1995) (QKFALPQYLKTVYQHQKAMKPWIQPKTKVIPY; UniProt P02663 187-218, looked up, fragment)	–	–	inhibition of growth of Escherichia coli (Escherichia coli): inhibit the growth; inhibition of growth of Staphylococuus carnosus (Staphylococuus carnosus): inhibit the growth
